Patent publication US9139842B2, “Methods and compositions for targeting sequences of interest to the chloroplast” (PIONEER HI-BRED INTERNATIONAL, INC., priority 2010, dated 2015)

Key:
sorghum leaves plastids = test: Agro-infiltration of sorghum leaves with DsRed fusions; assay type: cell-based
maize leaf chloroplasts = test: Agro-infiltration of maize leaves with DsRed2 fusions, fluorescence microscopy; assay type: cell-based, Zea mays; details: Example 16, assayed as described in Example 4
Excerpt: A vector was constructed in which the portion of the maize HPPD (SEQ ID NO: 9) gene coding for the N-terminal 50 amino acids was fused to the gene coding for Discosoma sp. red fluorescence protein 2 (DsRed2) and inserted into a binary expression vector under control of the maize Rubisco activase promoter (Liu et al. (1996) Plant Physiol. 112(1): 43-51) and terminated with the Solanum tuberosum proteinase inhibitor II (pinII) terminator region (An et al. (1989) Plant Cell 1:115-122) with a hygromycin selection cassette. Both genes are between left and right border sequences from Agrobacterium.
A positive control vector was identical to the vector having the N-terminal 50 amino acids of maize HPPD described above except that the HPPD CTP was removed and the DsRed2 insert was fused to the chloroplast targeting peptide of Zea maize rubisco activase, while a negative control was DsRed2 with no targeting sequence. […] Agro-infiltration is a well described method (Kapila et. al. (1997) Plant Science, 122:101-108) of introducing an Agrobacterium cell suspension to plant cells of intact tissues so that reproducible infection and subsequent plant derived trans-gene expression may be measured or studied.
Leaves of 3-week old maize seedlings were infiltrated with the Agrobacterium, and examined by fluorescence microscopy two days later (Nikon Eclipse 80i, DsRed filter set). […]

maize cell chloroplasts = test: Agro-infiltration of maize leaves with G. max HPPD N-terminus AcGFP1 fusions; assay type: cell-based, Zea mays; details: 4-week old maize seedlings, three days after infiltration
Excerpt: Vectors were constructed in which a portion of the gene coding for the G. max HPPD N-terminus was fused to a gene encoding Aequorea coerulescens green fluorescent protein 1 (AcGFP1) and inserted into a binary expression vector under control of the Arabidopsis Ubiquitin 10 promoter (Norris et al. (1993) Plant Mol. Biol. 21, 895-906) and terminated with the Glycine max Kunitz trypsin inhibitor 3 terminator region (NCBI accession S45092). Both genes were between left and right border sequences from Agrobacterium. One fusion contained amino acid residues 1-86 of the long Gm HPPD protein (SEQ ID NO:57). […]
A positive control vector was identical except that the AcGFP1 coding region was fused to the 6H1 synthetic chloroplast targeting peptide (U.S. Pat. No. 7,345,143), while a negative control was AcGFP1 with no targeting sequence. […] Agro-infiltration is a well described method (Kapila et. al. (1997) Plant Science, 122:101-108) of introducing an Agrobacterium cell suspension to plant cells of intact tissues so that reproducible infection and subsequent plant trans-gene expression may be measured or studied.
Leaves of 4-week old maize seedlings were infiltrated with the Agrobacterium, and examined by fluorescence microscopy three days later (Nikon Eclipse 80i, Narrow band-pass GFP filter set). […]

[1] = test system: G. max leaf cell chloroplasts; test: Transient expression of Gm HPPD-AcGFP fusion proteins in soy leaf discs; assay type: cell-based, Glycine max
Excerpt: Transient expression experiments indicate that the long HPPD protein (SEQ ID NO: 57) is imported to chloroplasts, while the short protein (SEQ ID NO: 59) remains in the cytosol. Plant expression cassettes were constructed fusing portions of the N terminus of Gm HPPD to an Aequorea coerulescens green fluorescent protein 1 (AcGFP1). One fusion contained amino acid residues 1-86 of the long Gm HPPD protein. Another contained residues 1-44 of the short HPPD protein (this corresponds to residues […] of the long protein). These cassettes were incorporated into binary vectors which also contained an untargeted DsRed2 expression cassette and introduced into A. tumefaciens strain AGL 1 and then used to infect leaf discs of G. max as described in Example 3 of U.S. Utility application Ser. No. 13/209,017, now issued U.S. Pat. No. 8,993,837, entitled “Chimeric Promoter and Methods of Use”, filed concurrently herewith and herein incorporated by reference in its entirety.

[2] = test system: stably transformed soybean cells; test: Immunogold localization of maize HPPD in stably transformed soybean leaf; assay type: cell-based, Glycine max; details: anti-maize HPPD antibody
Excerpt: Polyclonal antibodies were raised in rabbits against recombinant maize HPPD protein purified by nickel chelate affinity chromatography. Anti-HPPD antibodies were purified from serum by affinity chromatography on immobilized maize HPPD, and further purified by passage through a column of immobilized Rubisco, to remove a small fraction of antibodies that reacted with both HPPD and Rubisco. Leaf punches taken form stably transformed soybean plants expressing a gene encoding the maize HPPD protein (SEQ ID NO: 10) driven by an SCP1 synthetic promoter (U.S. Pat. No. 6,072,050) were fixed in 2% paraformaldehyde, 0.25% glutaraldehyde in 100 mM Na phosphate buffer, pH 7.0, for 3 hours at room temperature, dehydrated by passage through progressively higher concentrations of ethanol, embedded in LR White resin and cured at 55° C. for 48 hours. Sections (0.9 microns) were transferred onto Excell Adhesion glass microscope slides (Electron Microscopy Sciences). Immunolocalization was performed with the primary antibody being the double-purified anti-maize HPPD (1:200) and the secondary antibody goat anti-rabbit F(ab′) conjugated with gold particles (Aurion ultrasmall gold). Gold labeling was followed by silver enhancement (Aurion R-GENT SE-EM). […] Material was analyzed with a YAG detector for backscatter signal in a Hitachi 54800 scanning electron microscope. […]

maize HPPD = test: HPPD activity assay of maize HPPD variants expressed in E. coli; assay type: biochemical, Zea mays; details: N-terminal truncated variants of maize wild-type HPPD, single measurement
Excerpt: Organellar targeting sequences are usually cleaved after the peptide enters the organelle. Previous investigators (Fritze I et al. (2004) Plant Physiology 134:1388-1400; Yang C et al. (2004) Biochemistry 43: 10414-10423) have shown that native mature maize HPPD begins at either ala17 or ala23. Variants of the wild-type maize HPPD protein coding region were created with various lengths of the amino terminus removed. The sequences were expressed in E. coli and tested for activity and stability. In each case a methionine start codon was added to the truncated sequence. Proteins were designated by the position of their N-terminal amino acid (all alanines) as in SEQ ID NO: 9. All N-terminal truncated proteins retained the HPPD activity. […] Assaying HPPD activity was carried out as described in Example 1 of Provisional Application 61/401,456, filed Aug. 13, 2010, Compositions and Methods Comprising Sequences having Hydroxyphenylpyruvate Dioxygenase (HPPD) Activity, herein incorporated by reference in it entirety.

With “MPPTPTTAAATGAGAAAAVTPEHAAFRLVGHRRFVRFNPRSDRFHTLAFHHVE [53 amino acid consensus sequence]” the DsRed reporter localization (sorghum leaves plastids) was “efficiently targeted the DsRed reporter protein to plastids” and the DsRed localization (maize leaf chloroplasts) was “effectively targeted DsRed to maize plastids”.

With “residues 42-86: residues 1-44 of the short Gm HPPD protein (42-86 of the long protein) fused to AcGFP1” the “AcGFP marker protein localization” value (maize cell chloroplasts) was “delivered the protein to the cytosol” and the “AcGFP green fluorescence localization” value [1] was “green fluorescence is visible only in the cytoplasm”.

B1: maize HPPD: Maize WT HPPD (from WO1997049816 SEQ ID NO: 11), SEQ ID NO: 10 (protein)
chain: MPPTPTAAAAGAAVAAASAAEQAAFRLVGHRNFVRFNPRSDRFHTLAFHHVELWCADAASAAGRFSFGLGAPLAARSDLSTGNSAHASLLLRSGSLSFLFTAPYAHGADAATAALPSFSAAAARRFAADHGLAVRAVALRVADAEDAFRASVAAGARPAFGPVDLGRGFRLAEVELYGDVVLRYVSYPDGAAGEPFLPGFEGVASPGAADYGLSRFDHIVGNVPELAPAAAYFAGFTGFHEFAEFTTEDVGTAESGLNSMVLANNSENVLLPLNEPVHGTKRRSQIQTFLDHHGGPGVQHMALASDDVLRTLREMQARSAMGGFEFMAPPTSDYYDGVRRRAGDVLTEAQIKECQELGVLVDRDDQGVLLQIFTKPVGDRPTLFLEIIQRIGCMEKDEKGQEYQKGGCGGFGKGNFSQLFKSIEDYEKSLEAKQAAAAAAAQGS
modifications: Zea mays
With B1 the gold labeling localization [2] was “mainly in cytosol and nuclei, but also in chloroplasts”.

B2: Maize wt: wild-type maize HPPD protein (SEQ ID NO: 9) expressed in E. coli (protein)
chain: MGPTPTAAAAGAAVAAASAAEQAAFRLVGHRNFVRFNPRSDRFHTLAFHHVELWCADAASAAGRFSFGLGAPLAARSDLSTGNSAHASLLLRSGSLSFLFTAPYAHGADAATAALPSFSAAAARRFAADHGLAVRAVALRVADAEDAFRASVAAGARPAFGPVDLGRGFRLAEVELYGDVVLRYVSYPDGAAGEPFLPGFEGVASPGAADYGLSRFDHIVGNVPELAPAAAYFAGFTGFHEFAEFTTEDVGTAESGLNSMVLANNSENVLLPLNEPVHGTKRRSQIQTFLDHHGGPGVQHMALASDDVLRTLREMQARSAMGGFEFMAPPTSDYYDGVRRRAGDVLTEAQIKECQELGVLVDRDDQGVLLQIFTKPVGDRPTLFLEIIQRIGCMEKDEKGQEYQKGGCGGFGKGNFSQLFKSIEDYEKSLEAKQAAAAAAAQGS
modifications: Zea mays
For B2, the “kcat” value (maize HPPD) was 2.77 s⁻¹.
